Data taken from PMC5218480 (PLoS ONE, 2017).

Tested on: MV-4-11 cells
Assay: Gene expression microarray analysis (Affymetrix PrimeView) and GSEA
Assay type: cell-based, human
Parameters: RFU PODN (11730768_x_at) / Fold change /veh PODN (11730768_x_at) / RFU LINC00158 (11744669_a_at) / Fold change /veh LINC00158 (11744669_a_at) / RFU DUSP10 (11751237_a_at) / Fold change /veh DUSP10 (11751237_a_at) / RFU ID3 (11757404_x_at) / Fold change /veh ID3 (11757404_x_at) / RFU PLEKHG5 (11737974_s_at) / Fold change /veh PLEKHG5 (11737974_s_at) / RFU LRRC4B (11730491_at) / Fold change /veh LRRC4B (11730491_at) / RFU GIMAP4 (11747438_a_at) / Fold change /veh GIMAP4 (11747438_a_at) / RFU KRT8 (11758183_x_at) / Fold change /veh KRT8 (11758183_x_at) / RFU CNN1 (11734310_a_at) / Fold change /veh CNN1 (11734310_a_at) / RFU VPS37D (11726825_at) / Fold change /veh VPS37D (11726825_at) / RFU C10orf10 (11716522_x_at) / Fold change /veh C10orf10 (11716522_x_at) / RFU KIR2DL2 /// KIR2DL4 /// KIR2DL5A /// KIR2DL5B /// KIR2DS1 /// KIR2DS2 /// KIR2DS3 /// KIR2DS4 /// KIR3DL3 /// KIR3DL3 /// KIR3DS1 (11738374_at) / Fold change /veh KIR2DL2 /// KIR2DL4 /// KIR2DL5A /// KIR2DL5B /// KIR2DS1 /// KIR2DS2 /// KIR2DS3 /// KIR2DS4 /// KIR3DL3 /// KIR3DL3 /// KIR3DS1 (11738374_at) / RFU C1QL1 (11718748_at) / Fold change /veh C1QL1 (11718748_at) / RFU TMPRSS4 (11747572_a_at) / Fold change /veh TMPRSS4 (11747572_a_at) / RFU HAMP (11756126_x_at) / Fold change /veh HAMP (11756126_x_at) / RFU RNFT2 (11725882_a_at) / Fold change /veh RNFT2 (11725882_a_at) / RFU NR4A2 (11747474_a_at) / Fold change /veh NR4A2 (11747474_a_at) / RFU ABCC12 (11746883_a_at) / Fold change /veh ABCC12 (11746883_a_at) / RFU TMEM136 (11760407_x_at) / Fold change /veh TMEM136 (11760407_x_at) / RFU CLDN22 /// WWC2 (11732394_at) / Fold change /veh CLDN22 /// WWC2 (11732394_at) / RFU HLA-DPB1 (11760878_x_at) / Fold change /veh HLA-DPB1 (11760878_x_at) / RFU SPINT1 (11716480_a_at) / Fold change /veh SPINT1 (11716480_a_at) / RFU GAP43 (11754022_s_at) / Fold change /veh GAP43 (11754022_s_at) / RFU A4GNT (11735810_at) / Fold change /veh A4GNT (11735810_at) / RFU PRB3 (11715151_x_at) / Fold change /veh PRB3 (11715151_x_at) / RFU TUBB4B (11761932_at) / Fold change /veh TUBB4B (11761932_at) / RFU CAPN14 (11732068_a_at) / Fold change /veh CAPN14 (11732068_a_at) / RFU TMCC2 (11721928_a_at) / Fold change /veh TMCC2 (11721928_a_at) / RFU IRGQ (11745062_a_at) / Fold change /veh IRGQ (11745062_a_at) / RFU FAM174B (11720279_a_at) / Fold change /veh FAM174B (11720279_a_at) / RFU TMPRSS4 (11748680_a_at) / Fold change /veh TMPRSS4 (11748680_a_at) / RFU FAM212B (11763350_a_at) / Fold change /veh FAM212B (11763350_a_at) / RFU PLEKHG5 (11743358_a_at) / Fold change /veh PLEKHG5 (11743358_a_at) / RFU ZSCAN30 (11745921_a_at) / Fold change /veh ZSCAN30 (11745921_a_at) / RFU CMKLR1 (11741424_a_at) / Fold change /veh CMKLR1 (11741424_a_at) / RFU LOC101060620 /// MAPK8IP1 (11723275_at) / Fold change /veh LOC101060620 /// MAPK8IP1 (11723275_at) / RFU SPTSSB (11747773_x_at) / Fold change /veh SPTSSB (11747773_x_at) / RFU PRSS12 (11739890_at) / Fold change /veh PRSS12 (11739890_at) / RFU BIN1 (11741810_x_at) / Fold change /veh BIN1 (11741810_x_at) / RFU WNT11 (11732464_a_at) / Fold change /veh WNT11 (11732464_a_at) / RFU C10orf10 (11716521_a_at) / Fold change /veh C10orf10 (11716521_a_at) / RFU C5orf56 (11738089_at) / Fold change /veh C5orf56 (11738089_at) / RFU CYB561 (11721691_x_at) / Fold change /veh CYB561 (11721691_x_at) / RFU ANKRD19P (11752326_a_at) / Fold change /veh ANKRD19P (11752326_a_at) / RFU OR2T12 /// OR2T33 /// OR2T8 (11738714_s_at) / Fold change /veh OR2T12 /// OR2T33 /// OR2T8 (11738714_s_at) / RFU VCAN (11748164_a_at) / Fold change /veh VCAN (11748164_a_at) / RFU JSRP1 (11732532_at) / Fold change /veh JSRP1 (11732532_at) / RFU KRTAP10-11 (11738290_x_at) / Fold change /veh KRTAP10-11 (11738290_x_at) / RFU MYO3A (11730013_a_at) / Fold change /veh MYO3A (11730013_a_at) / RFU EBF3 (11725865_a_at) / Fold change /veh EBF3 (11725865_a_at) / RFU CAMK2N1 (11719241_x_at) / Fold change /veh CAMK2N1 (11719241_x_at) / RFU C5orf56 (11738088_a_at) / Fold change /veh C5orf56 (11738088_a_at) / RFU OLFML3 (11715873_a_at) / Fold change /veh OLFML3 (11715873_a_at) / RFU LOC100653217 /// NTM (11731650_a_at) / Fold change /veh LOC100653217 /// NTM (11731650_a_at) / RFU MAPK11 (11762145_a_at) / Fold change /veh MAPK11 (11762145_a_at) / RFU FIZ1 (11724087_x_at) / Fold change /veh FIZ1 (11724087_x_at) / RFU OASL (11726364_x_at) / Fold change /veh OASL (11726364_x_at) / RFU SOX15 (11748057_x_at) / Fold change /veh SOX15 (11748057_x_at) / RFU CD79A (11719716_a_at) / Fold change /veh CD79A (11719716_a_at) / RFU HIST1H1D (11736915_at) / Fold change /veh HIST1H1D (11736915_at) / RFU CASKIN2 (11723855_a_at) / Fold change /veh CASKIN2 (11723855_a_at) / RFU LOC730098 (11760151_x_at) / Fold change /veh LOC730098 (11760151_x_at) / RFU OR4N2 (11742367_at) / Fold change /veh OR4N2 (11742367_at) / RFU PRRT2 (11749266_a_at) / Fold change /veh PRRT2 (11749266_a_at) / RFU SNX32 (11753110_a_at) / Fold change /veh SNX32 (11753110_a_at) / RFU CDHR5 (11726645_a_at) / Fold change /veh CDHR5 (11726645_a_at) / RFU RCAN1 (11760418_a_at) / Fold change /veh RCAN1 (11760418_a_at) / RFU FAM167A (11723789_a_at) / Fold change /veh FAM167A (11723789_a_at) / RFU FAM26E (11764081_at) / Fold change /veh FAM26E (11764081_at) / RFU ISYNA1 (11749810_s_at) / Fold change /veh ISYNA1 (11749810_s_at) / RFU ACY1 (11761880_at) / Fold change /veh ACY1 (11761880_at) / RFU 11764098_at / Fold change /veh 11764098_at / RFU SAMD14 (11745864_x_at) / Fold change /veh SAMD14 (11745864_x_at) / RFU NPB (11741838_a_at) / Fold change /veh NPB (11741838_a_at) / RFU TMPRSS6 (11731388_a_at) / Fold change /veh TMPRSS6 (11731388_a_at) / RFU KRTAP10-2 (11738614_at) / Fold change /veh KRTAP10-2 (11738614_at) / RFU ARHGAP8 /// PRR5-ARHGAP8 (11727945_x_at) / Fold change /veh ARHGAP8 /// PRR5-ARHGAP8 (11727945_x_at) / RFU KRTAP5-7 /// NADSYN1 (11734609_at) / Fold change /veh KRTAP5-7 /// NADSYN1 (11734609_at) / RFU RASL12 (11751679_a_at) / Fold change /veh RASL12 (11751679_a_at) / RFU CDKN2B (11736163_a_at) / Fold change /veh CDKN2B (11736163_a_at) / RFU PRF1 (11729649_at) / Fold change /veh PRF1 (11729649_at) / RFU, ZNF638 /// ZNF638-IT1 / Fold change vs veh, ZNF638 /// ZNF638-IT1 / RFU, PANK3 / Fold change vs veh, PANK3 / RFU, SH3YL1 / Fold change vs veh, SH3YL1 / RFU, ZEB2 / Fold change vs veh, ZEB2 / RFU, NRIP1 / Fold change vs veh, NRIP1 / RFU, PTTG1IP / Fold change vs veh, PTTG1IP / RFU, CAPN2 / Fold change vs veh, CAPN2 / RFU, MED14 / Fold change vs veh, MED14 / RFU, SNORA58 / Fold change vs veh, SNORA58 / RFU, C1orf63 / Fold change vs veh, C1orf63 / RFU, LRRFIP1 / Fold change vs veh, LRRFIP1 / RFU, NDUFAF7 / Fold change vs veh, NDUFAF7 / RFU, SLC12A2 / Fold change vs veh, SLC12A2 / RFU, IBTK / Fold change vs veh, IBTK / RFU, ESF1 / Fold change vs veh, ESF1 / Fold change vs veh, TMEM50B / RFU, TAOK1 / Fold change vs veh, TAOK1 / RFU, ACBD3 / Fold change vs veh, ACBD3 / RFU, TMA16 / Fold change vs veh, TMA16 / RFU, RWDD3 / Fold change vs veh, RWDD3 / RFU, BCAT1 / Fold change vs veh, BCAT1 / RFU, EDEM3 / Fold change vs veh, EDEM3 / RFU, TMEM33 / Fold change vs veh, TMEM33 / RFU, WDR75 / Fold change vs veh, WDR75 / RFU, AHCTF1 / Fold change vs veh, AHCTF1 / RFU, TFRC / Fold change vs veh, TFRC / RFU, ZDHHC17 / Fold change vs veh, ZDHHC17 / RFU, NOM1 / Fold change vs veh, NOM1 / RFU, ARL8B / Fold change vs veh, ARL8B / RFU, ZBTB11 / Fold change vs veh, ZBTB11 / RFU, TAMM41 / Fold change vs veh, TAMM41 / RFU, KIAA1704 /// LOC100996395 / Fold change vs veh, KIAA1704 /// LOC100996395 / RFU, ING1 / Fold change vs veh, ING1 / RFU, TRMT61B / Fold change vs veh, TRMT61B / RFU, FUBP3 / Fold change vs veh, FUBP3 / RFU, TP53 / Fold change vs veh, TP53 / RFU, TNKS2 / Fold change vs veh, TNKS2 / RFU, ZFP14 / Fold change vs veh, ZFP14 / RFU, ACTR2 / Fold change vs veh, ACTR2 / RFU, PPP3R1 / Fold change vs veh, PPP3R1 / RFU, PIK3R1 / Fold change vs veh, PIK3R1 / RFU, HNRNPA1 / Fold change vs veh, HNRNPA1 / RFU, RNF170 / Fold change vs veh, RNF170 / RFU, ZNF28 / Fold change vs veh, ZNF28 / RFU, RNGTT / Fold change vs veh, RNGTT / RFU, OGT / Fold change vs veh, OGT / RFU, BRD1 / Fold change vs veh, BRD1 / RFU, MARS / Fold change vs veh, MARS / RFU, ZNF655 / Fold change vs veh, ZNF655 / RFU, FAHD1 / Fold change vs veh, FAHD1 / RFU, BDP1 / Fold change vs veh, BDP1 / RFU, LRRCC1 / Fold change vs veh, LRRCC1 / RFU, ARID1A / Fold change vs veh, ARID1A / RFU, ZNF146 / Fold change vs veh, ZNF146 / RFU, ZNF330 / Fold change vs veh, ZNF330 / RFU, GPN3 / Fold change vs veh, GPN3 / RFU, C9orf123 / Fold change vs veh, C9orf123 / RFU, N4BP2L2 / Fold change vs veh, N4BP2L2 / RFU, ARFIP1 / Fold change vs veh, ARFIP1 / RFU, FAM179B / Fold change vs veh, FAM179B / RFU, BCL10 / Fold change vs veh, BCL10 / RFU, UHRF1BP1L / Fold change vs veh, UHRF1BP1L / RFU, BET1 / Fold change vs veh, BET1 / RFU, CNOT2 / Fold change vs veh, CNOT2 / RFU, ZNF268 / Fold change vs veh, ZNF268 / Fold change vs veh, ZNF507 / RFU, DGCR2 / Fold change vs veh, DGCR2 / RFU, WDSUB1 / Fold change vs veh, WDSUB1 / Fold change vs veh, HSP90B1 /// MIR3652 / RFU, ADSS / Fold change vs veh, ADSS / RFU, GK / Fold change vs veh, GK / RFU, ZNF148 / Fold change vs veh, ZNF148 / RFU, TAF9 / Fold change vs veh, TAF9 / RFU, SLC1A5 / Fold change vs veh, SLC1A5 / RFU, SLMO2 / Fold change vs veh, SLMO2 / RFU, ABCC4 / Fold change vs veh, ABCC4 / RFU, LOC101060439 /// RAP1B / Fold change vs veh, LOC101060439 /// RAP1B / RFU, RFX7 / Fold change vs veh, RFX7 / RFU, GTPBP10 / Fold change vs veh, GTPBP10 / RFU, CNEP1R1 / Fold change vs veh, CNEP1R1 / RFU, BIVM-ERCC5 /// ERCC5 / Fold change vs veh, BIVM-ERCC5 /// ERCC5 / RFU, ILF3 / Fold change vs veh, ILF3 / RFU 11762660_at / Fold change /veh 11762660_at / RFU VCAN (11757783_s_at) / Fold change /veh VCAN (11757783_s_at) / RFU DDX43 (11728927_at) / Fold change /veh DDX43 (11728927_at) / RFU KRT8 (11758188_x_at) / Fold change /veh KRT8 (11758188_x_at) / RFU NKD1 (11759106_at) / Fold change /veh NKD1 (11759106_at) / RFU SRD5A1 (11742802_a_at) / Fold change /veh SRD5A1 (11742802_a_at) / RFU TPSAB1 /// TPSB2 (11721975_s_at) / Fold change /veh TPSAB1 /// TPSB2 (11721975_s_at) / RFU GSTM3 (11746129_a_at) / Fold change /veh GSTM3 (11746129_a_at) / RFU IL23R (11737362_x_at) / Fold change /veh IL23R (11737362_x_at) / RFU TMEM51 (11727254_a_at) / Fold change /veh TMEM51 (11727254_a_at) / RFU PIWIL2 (11732686_x_at) / Fold change /veh PIWIL2 (11732686_x_at) / RFU ORM1 (11744905_x_at) / Fold change /veh ORM1 (11744905_x_at) / RFU CCDC152 (11743942_at) / Fold change /veh CCDC152 (11743942_at) / RFU ECM1 (11717891_a_at) / Fold change /veh ECM1 (11717891_a_at) / RFU IL23R (11748794_a_at) / Fold change /veh IL23R (11748794_a_at) / RFU TNFAIP8L3 (11732012_x_at) / Fold change /veh TNFAIP8L3 (11732012_x_at) / RFU MBOAT4 (11741988_at) / Fold change /veh MBOAT4 (11741988_at) / RFU 11764193_at / Fold change /veh 11764193_at / RFU TMEM53 (11763286_at) / Fold change /veh TMEM53 (11763286_at) / RFU MAGEB2 (11727129_at) / Fold change /veh MAGEB2 (11727129_at) / RFU TMEM200A (11744735_a_at) / Fold change /veh TMEM200A (11744735_a_at) / RFU CCDC152 (11751479_a_at) / Fold change /veh CCDC152 (11751479_a_at) / RFU FAM211A (11726209_a_at) / Fold change /veh FAM211A (11726209_a_at) / RFU RGS16 (11746705_a_at) / Fold change /veh RGS16 (11746705_a_at) / RFU VCAN (11755009_s_at) / Fold change /veh VCAN (11755009_s_at) / RFU RHOB (11743442_s_at) / Fold change /veh RHOB (11743442_s_at) / RFU RGS16 (11720943_a_at) / Fold change /veh RGS16 (11720943_a_at) / RFU RGS16 (11720944_at) / Fold change /veh RGS16 (11720944_at) / RFU, VPS4B / Fold change vs veh, VPS4B / RFU, CREB1 / Fold change vs veh, CREB1 / RFU, DNAJC13 / Fold change vs veh, DNAJC13 / RFU, GNAQ / Fold change vs veh, GNAQ / RFU, CDK5R1 / Fold change vs veh, CDK5R1 / RFU, ZRANB3 / Fold change vs veh, ZRANB3 / RFU, CUL4A / Fold change vs veh, CUL4A / RFU, CCNY / Fold change vs veh, CCNY / RFU, UFL1 / Fold change vs veh, UFL1 / RFU, COG3 / Fold change vs veh, COG3 / RFU, DIAPH2 / Fold change vs veh, DIAPH2 / RFU, SKA2 / Fold change vs veh, SKA2 / RFU, AFF3 / Fold change vs veh, AFF3 / RFU, LMF1 / Fold change vs veh, LMF1 / RFU, IPO11 / Fold change vs veh, IPO11 / RFU, DFFB / Fold change vs veh, DFFB / RFU, FOXP1 / Fold change vs veh, FOXP1 / RFU, CARD8 / Fold change vs veh, CARD8 / RFU, STRN3 / Fold change vs veh, STRN3 / RFU, ADK / Fold change vs veh, ADK / RFU, RASSF2 / Fold change vs veh, RASSF2 / RFU, WIPF1 / Fold change vs veh, WIPF1 / RFU, LARP1B / Fold change vs veh, LARP1B / RFU, RASA1 / Fold change vs veh, RASA1 / RFU, RB1 / Fold change vs veh, RB1 / RFU, PPFIA1 / Fold change vs veh, PPFIA1 / RFU, MAT2A / Fold change vs veh, MAT2A / RFU, CCT5 / Fold change vs veh, CCT5 / RFU, WDR92 / Fold change vs veh, WDR92 / RFU, CUX1 / Fold change vs veh, CUX1 / RFU, TTC7A / Fold change vs veh, TTC7A / RFU, TMEM135 / Fold change vs veh, TMEM135 / RFU, DEPTOR / Fold change vs veh, DEPTOR / RFU, CPM / Fold change vs veh, CPM / RFU, DNAJB6 / Fold change vs veh, DNAJB6 / RFU, CACNA2D3 / Fold change vs veh, CACNA2D3 / RFU, DTX4 / Fold change vs veh, DTX4 / RFU, TFCP2 / Fold change vs veh, TFCP2 / RFU, GMCL1 /// GMCL1P1 / Fold change vs veh, GMCL1 /// GMCL1P1 / RFU, AEBP2 / Fold change vs veh, AEBP2 / RFU, SNHG1 /// SNORD22 /// SNORD25 /// SNORD26 /// SNORD27 /// SNORD28 /// SNORD29 /// SNORD31 / Fold change vs veh, SNHG1 /// SNORD22 /// SNORD25 /// SNORD26 /// SNORD27 /// SNORD28 /// SNORD29 /// SNORD31 / Fold change (Aza/veh), C12orf56 (ProbeSet 11735607_a_at) / Fold change (ACY-1035/veh), C12orf56 (ProbeSet 11735607_a_at) / Fold change (Aza/veh), FGFR1OP (ProbeSet 11751329_s_at) / Fold change (ACY-1035/veh), FGFR1OP (ProbeSet 11751329_s_at) / Fold change (Aza/veh), VPS36 (ProbeSet 11739960_a_at) / Fold change (ACY-1035/veh), VPS36 (ProbeSet 11739960_a_at) / RFU SYPL1 (11715823_x_at) / Fold change /veh SYPL1 (11715823_x_at) / RFU IGFBP7 (11715501_s_at) / Fold change /veh IGFBP7 (11715501_s_at) / RFU REEP3 (11722064_at) / Fold change /veh REEP3 (11722064_at) / RFU IGLL1 (11728026_x_at) / Fold change /veh IGLL1 (11728026_x_at): dose or concentration left out as unconfirmed
Settings: ProbeSet 11750457_a_at; LIST B

Nc1ccc(-c2cccs2)cc1NC(=O)c1ccc2c(c1)cc(C1CC1)n2CCN1CCOCC1 [ACY-1035]
Fold change vs veh, GTPBP10: 0.84
